The results in this text go back to patent publication US8785482B2, “Cyclohexene benzotriazole derivatives” (Merck Sharp & Dohme Corp., priority 2011, dated 2014).

The target in this assay is T1, recombinant human mGluR2 (Homo sapiens, UniProt Q14416).
T1 construct: expressed in transfected cells
T1 sequence (Q14416 19-872): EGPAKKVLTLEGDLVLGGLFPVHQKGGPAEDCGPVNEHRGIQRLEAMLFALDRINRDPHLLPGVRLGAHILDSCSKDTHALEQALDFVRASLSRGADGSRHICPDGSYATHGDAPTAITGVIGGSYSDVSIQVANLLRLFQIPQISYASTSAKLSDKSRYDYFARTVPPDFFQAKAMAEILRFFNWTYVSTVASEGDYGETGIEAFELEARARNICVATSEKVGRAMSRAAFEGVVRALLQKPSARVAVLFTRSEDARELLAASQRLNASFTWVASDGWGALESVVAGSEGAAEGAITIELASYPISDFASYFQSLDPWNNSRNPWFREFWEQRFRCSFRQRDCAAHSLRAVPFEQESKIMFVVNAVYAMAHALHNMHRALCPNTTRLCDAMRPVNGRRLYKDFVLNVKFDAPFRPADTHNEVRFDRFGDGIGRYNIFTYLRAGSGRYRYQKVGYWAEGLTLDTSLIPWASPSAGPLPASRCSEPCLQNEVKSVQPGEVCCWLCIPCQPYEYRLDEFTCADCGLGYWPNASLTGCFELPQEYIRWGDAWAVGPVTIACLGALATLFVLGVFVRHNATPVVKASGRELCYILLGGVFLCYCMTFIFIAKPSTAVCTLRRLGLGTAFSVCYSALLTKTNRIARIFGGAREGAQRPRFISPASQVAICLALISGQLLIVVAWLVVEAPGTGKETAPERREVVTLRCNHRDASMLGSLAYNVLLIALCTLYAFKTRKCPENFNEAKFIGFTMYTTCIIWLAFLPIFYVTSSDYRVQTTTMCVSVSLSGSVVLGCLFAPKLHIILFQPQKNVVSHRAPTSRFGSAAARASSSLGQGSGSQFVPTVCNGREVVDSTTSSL
Description: FLIPR Ca2+ mobilization assay, potentiation of glutamate response. It counts as cell-based. As to conditions: CHO dhfr- cells expressing human mGluR2 and Gα16, EC20 glutamate (900 nM). On the procedure: Potencies are determined as follows. The compounds of the present invention may be tested in a fluorescence laser imaging plate reader (FLIPR) based assay. This assay is a common functional assay to monitor Ca^2+ mobilization in whole cells expressing recombinant receptor coupled with a promiscuous G-protein. CHO dhfr-cells stably expressing recombinant human mGluR2 and Gα16 loaded with Fluo-4 AM (Invitrogen, Carlsbad Calif.) are treated with varying concentrations of compounds and the Ca^2+ response is monitored on a FLIPR384 (Molecular Devices, Sunnydale Calif.) for agonist activity. The potentiation response is monitored after a subsequent addition of an EC20 concentration of glutamate (900 nM). The maximum calcium response at each concentration of compound for agonism or potentiation are plotted as dose responses curves fitted with a four parameters logistic equation giving EC50 and Hill coefficient using the iterative non linear curve fitting software program.
Such results are indicative of the intrinsic activity of the compounds in use as potentiators of mGluR2 receptor activity.
In general terms: Calcium flux is commonly read through the fluorescence of an indicator in the cells.
For orientation: EC50 means the concentration that produces a half-maximal response. For the compound `COC(=O)C1CC=C(c2ccc3c(nnn3CC3CC3)c2Cl)CC1` (centres unmarked) [Example 1, Methyl 4-[4-chloro-1-(cyclopropylmethyl)-1H-benzotriazol-5-yl]cyclohex-3-ene-1-carboxylate], the EC50 turned out to be 373 nM. On to `OCC1CC=C(c2ccc3c(nnn3CC3CC3)c2Cl)CC1` (centres unmarked) [Example 2, {4-[4-Chloro-1-(cyclopropylmethyl)-1H-benzotriazol-5-yl]cyclohex-3-en-1-yl}methanol], for which the EC50 was found to be 77 nM. To `CN1C(=O)CN(CC2CC=C(c3ccc4c(nnn4CC4CC4)c3Cl)CC2)C1=O` (centres unmarked) [Example 3, 1-({4-[4-Chloro-1-(cyclopropylmethyl)-1H-benzotriazol-5-yl]cyclohex-3-en-1-yl}methyl)-3-methylimidazolidine-2,4-dione] belongs 17 nM; to `Clc1c(C2=CCCCC2)ccc2c1nnn2CC1CC1` [Example 4, 4-chloro-5-cyclohex-1-en-1-yl-1-(cyclopropylmethyl)-1H-benzotriazole], 947 nM; to `OC1CC=C(c2ccc3c(nnn3CC3CC3)c2Cl)CC1` (centres unmarked) [Example 5, 4-[4-chloro-1-(cyclopropylmethyl)-1H-benzotriazol-5-yl]cyclohex-3-en-1-ol], 408 nM. The value for `N#CC1CC=C(c2ccc3c(nnn3CC3CC3)c2Cl)CC1` (centres unmarked) [Example 6, 4-[4-chloro-1-(cyclopropylmethyl)-1H-benzotriazol-5-yl]cyclohex-3-ene-1-carbonitrile] was 701 nM; that for `COC(=O)C1CC=C(c2ccc3c(nnn3CC3CC3)c2C(F)(F)F)CC1` (centres unmarked) [Example 7, Methyl 4-[1-(cyclopropylmethyl)-4-(trifluoromethyl)-1H-benzotriazol-5-yl]cyclohex-3-ene-1-carboxylate] was 31 nM. The value for `CN1C(=O)CN(CC2CC=C(c3ccc4c(nnn4CC4CC4)c3C(F)(F)F)CC2)C1=O` (centres unmarked) [Example 8, 1-({4-[1-(Cyclopropylmethyl)-4-(trifluoromethyl)-1H-benzotriazol-5-yl]cyclohex-3-en-1-yl}methyl)-3-methylimidazolidine-2,4-dione] was 15 nM. In the case of `CN1CC(c2ccc3c(nnn3CC(C)(C)C)c2Br)=CCC1CO` (centres unmarked) [Example 9, {5-[4-Bromo-1-(2,2-dimethylpropyl)-1H-benzotriazol-5-yl]-1-methyl-1,2,3,6-tetrahydropyridin-2-yl}methanol], the EC50 was determined as 1560 nM. The value for `OCC1CC=C(c2ccc3c(nnn3CC3CC3)c2Br)CC1` (centres unmarked) [Example 10, {4-[4-Bromo-1-(cyclopropylmethyl)-1H-benzotriazol-5-yl]cyclohex-3-en-1-yl}methanol] was 52 nM; that for `CN1C(=O)CN(CC2CC=C(c3ccc4c(nnn4CC4CC4)c3Br)CC2)C1=O` (centres unmarked) [Example 11, 1-({4-[4-Bromo-1-(cyclopropylmethyl)-1H-benzotriazol-5-yl]cyclohex-3-en-1-yl}methyl)-3-methylimidazolidine-2,4-dione] was 9.2 nM.
